Laboratory results taken from ChEMBL document CHEMBL3856283, “Structure-based design of ester compounds to inhibit MLL complex catalytic activity by targeting mixed lineage leukemia 1 (MLL1)-WDR5 interaction” (Bioorg Med Chem, 2016).

Assays:
[1] = molecular target: T1, WD repeat-containing protein 5 (Homo sapiens, UniProt P61964); test: Inhibition of N-terminal FITC-GSARAEVHLRKS binding to WDR5 (unknown origin) by fluorescence polarization assay
[2] = Permeability of the compound after 4 hrs by PAMPA; format: ADME; conditions: read-out: permeability
[3] = Antiproliferative activity against human K562 cells harboring BCR-ABL assessed as inhibition of cell viability after 72 hrs by CCK8-based colorimetric assay; format: functional; conditions: K562, 72 h
[4] = Antiproliferative activity against human MV4-11 cells harboring MLL-AF4 assessed as inhibition of cell viability after 72 hrs by CCK8-based colorimetric assay; format: functional; conditions: MV4-11, 72 h
[5] = molecular target: T1, WD repeat-containing protein 5; test: Inhibition of C-terminal 5-FAM-ARTEVHLRKS binding to WDR5 (unknown origin) by fluorescence polarization assay
[6] = tested on: K562; test: Selectivity ratio of IC50 for human K562 cells harboring BCR-ABL to IC50 for human MV4-11 cells harboring MLL-AF4; format: functional
[7] = molecular target: MLL1/ASH2L/RBBP5/WDR5 complex (Homo sapiens, UniProt P61964+Q03164+Q15291+Q9UBL3); test: Inhibition of recombinant MLL1 (unknown origin) interaction with recombinant ASH2L/RBBP5/WDR5 (unknown origin) assessed as decrease in histone methylation after 60 mins by Alpha Screen assay; format: protein-complex assay
[8] = Antiproliferative activity against human MV4-11 cells harboring MLL-AF4 after 7 days by CellTiter-Glo luminescent cell viability Assay; format: functional, cell-based; conditions: MV4-11, 168 h

| Compound | Papp at 4 h [2] [×10⁻⁶ cm/s] | IC50 [5] [µM] | IC50 [3] [µM] | IC50 [4] [µM] | further results |
| --- | --- | --- | --- | --- | --- |
| COC(=O)c1ccc(N2CCN(C)CC2)c(NC(=O)c2cccc(OC)c2)c1 | – | – | – | – | Kd [1]: 3 µM |
| Cc1c(F)c(N)cc(C(=O)Nc2cc(C(=O)Oc3ccccc3)ccc2N2CCN(C)CC2)c1Cl | 38 | 0.0264 | 33.4 | 66.5 | IC50 [7]: 5.4 µM |
| Cc1c(F)ccc(C(=O)Nc2cc(C(=O)O)ccc2N2CCN(C)CC2)c1Cl | – | > 20 | – | – | – |
| CCOC(=O)c1ccc(N2CCN(C)CC2)c(NC(=O)c2ccc(F)c(C)c2Cl)c1 | 44.9 | 0.284 | 90.7 | 49.8 | – |
| COC(=O)c1ccc(N2CCN(C)CC2)c(NC(=O)c2cc(N)c(F)c(C)c2Cl)c1 | 52.9 | 0.0465 | > 100 | > 100 | IC50 [7]: 4.6 µM |
| CC(C)NCC(O)COc1cccc2ccccc12 (stereo unspecified) [PROPRANOLOL] | 98.7 | – | – | – | – |
| Cc1c(F)ccc(C(=O)Nc2cc(C(=O)OC3CCCCC3)ccc2N2CCN(C)CC2)c1Cl | – | > 20 | – | – | – |
| CCC(CC)(NC(=O)C(C)C)C(=O)N[C@@H](CCCNC(=N)N)C(=O)NC1(C(=O)NC(c2ccc(F)cc2)c2ccc(F)cc2)CCCC1 | – | – | 37.8 | 20.7 | IC50 [8]: 25 µM |
| Cc1c(F)ccc(C(=O)Nc2cc(C(=O)OC(C)C)ccc2N2CCN(C)CC2)c1Cl | 49.8 | 0.264 | > 100 | 57.1 | – |
| Cc1c(F)c(N)cc(C(=O)Nc2cc(C(=O)OC3CCCCC3)ccc2N2CCN(C)CC2)c1Cl | 5.6 | 0.0588 | > 100 | > 100 | – |
| Cc1c(F)c([N+](=O)[O-])cc(C(=O)Nc2cc(C(=O)OC3CCCCC3)ccc2N2CCN(C)CC2)c1Cl | – | > 0.02 | – | – | – |
| Cc1c(F)ccc(C(=O)Nc2cc(C(=O)Oc3ccccc3)ccc2N2CCN(C)CC2)c1Cl | 48 | 0.162 | 53.9 | 45.2 | – |

The next lines start with results.

| Papp at 4 h [2] [×10⁻⁶ cm/s] | IC50 [5] [µM] | Compound | IC50 [3] [µM] | IC50 [4] [µM] | further results |
| --- | --- | --- | --- | --- | --- |
| 60 | 0.483 | CN1CCN(c2ccc(C(=O)Oc3ccccc3)cc2NC(=O)c2ccc(F)c([N+](=O)[O-])c2)CC1 | 11.6 | 10.8 | – |
| 52.4 | 0.454 | COC(=O)c1ccc(N2CCN(C)CC2)c(NC(=O)c2ccc(F)c([N+](=O)[O-])c2)c1 | 57.1 | 4.7 | Ratio IC50 [6]: 10 |
| – | > 0.02 | COC(=O)c1ccc(N2CCN(C)CC2)c(NC(=O)c2ccc(F)c(N)c2)c1 | – | – | – |
| 61.4 | 1.17 | CC(C)OC(=O)c1ccc(N2CCN(C)CC2)c(NC(=O)c2ccc(F)c([N+](=O)[O-])c2)c1 | 58 | 13.3 | – |
| – | > 0.02 | CCOC(=O)c1ccc(N2CCN(C)CC2)c(NC(=O)c2ccc(F)c([N+](=O)[O-])c2)c1 | – | – | – |
| 56.3 | 0.812 | Cc1c(F)c([N+](=O)[O-])cc(C(=O)Nc2cc(C(=O)Oc3ccccc3)ccc2N2CCN(C)CC2)c1Cl | 15.7 | 9.9 | – |
| – | > 20 | CN1CCN(c2ccc(C(=O)OC3CCCCC3)cc2NC(=O)c2ccc(F)c([N+](=O)[O-])c2)CC1 | – | – | – |
| 59.8 | 0.433 | COC(=O)c1ccc(N2CCN(C)CC2)c(NC(=O)c2ccc(F)c(C)c2Cl)c1 | > 100 | > 100 | – |
| – | > 20 | CN1CCN(c2ccc(C(=O)Oc3ccccc3)cc2NC(=O)c2ccc(F)c(N)c2)CC1 | – | – | – |
| – | > 0.02 | CC(C)OC(=O)c1ccc(N2CCN(C)CC2)c(NC(=O)c2ccc(F)c(N)c2)c1 | – | – | – |
| – | > 0.02 | CN1CCN(c2ccc(C(=O)O)cc2NC(=O)c2ccc(F)c([N+](=O)[O-])c2)CC1 | – | – | – |
| 74.8 | 0.245 | COC(=O)c1ccc(N2CCN(C)CC2)c(NC(=O)c2cc([N+](=O)[O-])c(F)c(C)c2Cl)c1 | 17.2 | 3.4 | – |
| – | > 0.02 | CN1CCN(c2ccc(C(=O)OC3CCCCC3)cc2NC(=O)c2ccc(F)c(N)c2)CC1 | – | – | – |
